Data published in US20260273028A1, “PEROXIDASE COMPOSITIONS CONTAINING IMPROVED ENHANCING AGENTS” (FLEN HEALTH PHARMA NV, priority 2022, published 2026).

Assays:
Lactoperoxidase = Lactoperoxidase (Bos taurus, UniProt P80025); assay: Lactoperoxidase (LPO) activity, spectrophotometric assay (ABTS); type: biochemical
Procedure: Lactoperoxidase is a member of the heme peroxidase family of enzymes that, together with a catalytic anion (such as I^−, derived from KI, present in the substrate), will catalyse the oxidation of H2O2, leading to hypojodite (IO^−). This hypojodite is a reactive oxygen species (ROS). To measure the enzymatic activity of LPO, a standard spectrophotometric assay is performed. In brief, H2O2 combined with 2,2′-azino-bis (3-ethylbenzothiazoline-6-sulfonzuur (ABTS) is catalysed by LPO so that the formation of a coloured compound is achieved that can in turn be measured by spectrophotometry. LPO was tested in 3 different concentrations, i.e., 50, 10 and 1 mg/ml. Each reaction mixture was tested in duplo. In the event LPO activity was evaluated in the presence of a potentiator candidate (=a molecule that might be able to augment the enzymatic activity of LPO), the latter was added in a low and high concentration ranging from 100 to 0.1 mg/ml. The blank consisted of the reaction mix in which H2O2 was absent. The absorbance was immediately measured with a plate reader (Spectramax ID3, Molecular Devices) every 12 seconds for 5 minutes at 20° C. For each combination evaluated, this test was repeated at least 2 times. Results were further analysed in MS Excel and expressed as U/g. Mean blank-corrected data±SD were plotted. Statistical significance compared to the combination without potentiator candidate (reference) was calculated using students' t-tests. Significance is achieved when the obtained p-value is lower than 0,05. Significance levels were defined as p<0.05=*; p<0.01=** and p<0.001=***.

[1] = tested on: Staphylococcus aureus ATCC® 6538™; assay: MBC determination, broth microdilution with CFU enumeration; type: cell-based; details: S. aureus
Procedure: (§1) The minimal bactericidal concentration (MBC) is defined as the lowest concentration of an antimicrobial agent that results in a complete killing of the microbial population (determined via standard CFU enumeration techniques) after overnight incubation. This endpoint measurement is used, together with the MIC (see above), to define the microbial susceptibility towards an antimicrobial agent. Here, the antimicrobial agent is a combination of the natural enzymes GOX+LPO.
(§2) To determine the MBC of the described combinations, a classical broth microdilution assay combined with standard CFU enumeration techniques was used to determine the susceptibility of a series of microbes commonly detected in infected wounds, including (a) the Gram-positive bacterium Staphylococcus aureus ATCC® 6538™ (results shown below), (b) the Gram-negative bacterium Pseudomonas aeruginosa ATCC®9027™ (results shown below), (c) the yeast Candida albicans ATCC®10231™ (results shown below), and (d) the fungus Aspergillus niger ATCC®16404™ (results shown below). In brief, the broth microdilution assay was set up as previously described (see 2.1). After incubation, the MBC was determined by investigating the presence of viable microorganisms at the MIC and following higher concentrations (MICx2, MICx4, and so on) using standard CFU enumeration techniques. For each combination evaluated, this test was repeated at least 5 times. The collected data were further analyzed in MS Excel. Mean concentration data (expressed as log CFU/ml) were visualized in a table format in which the MBC was highlighted.

[2] = tested on: Staphylococcus aureus ATCC® 6538™; assay: Absolute microbial counts in function of enzyme solution concentration; type: cell-based; details: 0.005%-0.0000391% (v/v) GOX+LPO
Excerpt: (§3) Absolute microbial counts in function of concentration of the antimicrobial agent tested are useful to monitor the bactericidal and fungicidal efficacy of that agent.
(§4) To determine the absolute number of live microorganisms in function of different enzyme solution concentrations tested, a classical broth microdilution assay combined with standard CFU enumeration techniques was used to determine the susceptibility of a series of microbes commonly detected in infected wounds, including (a) the Gram-positive bacterium Staphylococcus aureus ATCC® 6538™ (results shown below), (b) the Gram-negative bacterium Pseudomonas aeruginosa ATCC®9027™ (results shown below), (c) the yeast Candida albicans ATCC®10231™ (results shown below), and (d) the fungus Aspergillus niger ATCC®16404™ (results shown below). In brief, the broth microdilution assay was set up as previously described (see 2.1). After incubation, the absolute microbial count at the MIC and following higher concentrations (MICx2, MICx4, and so on) was determined using standard CFU enumeration techniques. For each combination evaluated, this test was repeated at least 5 times. The collected data were further analyzed in MS Excel and expressed as log CFU/ml. Mean results were plotted in function of enzyme solution concentration.

[3] = tested on: Candida albicans ATCC®10231™; assay: MBC determination, broth microdilution with CFU enumeration; type: cell-based; details: C. albicans; enhancer 0.01%
Procedure: as §1, §2

[4] = tested on: Candida albicans ATCC®10231™; assay: Absolute microbial counts in function of enzyme solution concentration; type: cell-based; details: enhancer 0.01%; 0.005%-0.0000391% (v/v) GOX+LPO
Excerpt: as §3, §4

MMP9 = MMP9 secretion by THP-1-derived macrophages, ELISA; type: cell-based; details: 24 h
Procedure: First, the effect on the secretion of these mediators by macrophages was evaluated. Secondly, the direct neutralization of already secreted mediators was evaluated. Both were measured by the state-of-the-art ELISA technique. First, the secretion of the pro-inflammatory mediator representatives IL-6, TNFa and MMP9 in cell culture supernatants by THP-1 (a monocytic cell line) after its differentiation into macrophages were measured. In brief, THP-1 cells were seeded at a density of 3×10^5 cells/cm^2 in a 6-well plate in the presence of 160 nM of phorbol-12-myristate-13-acetate (PMA) to induce macrophage differentiation. Differentiation was further conducted for 48 h. […] Supernatants were collected and centrifuged at 150 g for 5 min to remove cell debris and were kept at −20° C. before being processed for ELISA. IL-6, TNFa and MMP9 ELISA kits were purchased from BioTechne and the experiment was performed according to manufacturer's instructions. Briefly, 96-well plates were coated with capture antibodies overnight at room temperature. […] The reaction was stopped by the addition of sulphuric acid and absorbance at 450 nm was read with a plate reader. Absorbance is proportional to the concentration of analyte present in the medium, which was calculated based on a standard curve realized with recombinant IL-6, TNFa and MMP9.

For `NC(=O)C[C@H](N)C(=O)O` [Asparagine, asparagine], the “LPO activity compared to reference” value (Lactoperoxidase; enhancer 0.1 mg/ml) was “significant increase” and the “LPO activity compared to reference” value (Lactoperoxidase; enhancer 1 mg/ml) was “significant increase”.

With `NC(=O)CC[C@H](N)C(=O)O` [Glutamine, glutamine] the “LPO activity compared to reference” value (Lactoperoxidase; enhancer 0.1 mg/ml) was “significant increase”, the “LPO activity compared to reference” value (Lactoperoxidase; enhancer 1 mg/ml) was “significant increase” and the “MBC: GOX+LPO enzyme solution needed” value ([1]; enhancer 0.1%) was 0.0000391 % (v/v). For the same compound, the “increase in MBC compared to reference” value ([1]; enhancer 0.1%) was 4 ×, the “increase in MBC compared to the enhancing molecule guaiacol” value ([1]; enhancer 0.1%) was 2 × and the “reduction in absolute S. aureus counts compared to reference and guaiacol solution” value (shortened to “reduction in absolute S. aureus counts”) ([2]; enhancer 0.1%) was “stronger reduction”.

With `CC[C@H](C)[C@H](N)C(=O)O` [Isoleucine, isoleucine] the “MBC: GOX+LPO enzyme solution needed” value [3] was 0.0000391 % (v/v), the “increase in MBC compared to reference” value [3] was 4 × and the “increase in MBC compared to the enhancing molecule guaiacol” value [3] was 2 ×. For the same compound, the “MBC: GOX+LPO enzyme solution needed” value ([1]; enhancer 0.00125%) was 0.0000391 % (v/v), the “increase in MBC compared to reference” value ([1]; enhancer 0.00125%) was 4 × and the “increase in MBC compared to the enhancing molecule guaiacol” value ([1]; enhancer 0.00125%) was 2 ×. The “MBC: GOX+LPO enzyme solution needed” value ([1]; enhancer 0.005%) was 0.0000391 % (v/v), the “increase in MBC compared to reference” value ([1]; enhancer 0.005%) was 4 × and the “increase in MBC compared to the enhancing molecule guaiacol” value ([1]; enhancer 0.005%) was 2 ×. The “reduction in absolute C. albicans counts compared to reference and guaiacol solution” value [4] was “stronger reduction”, the “reduction in absolute S. aureus counts” value ([2]; enhancer 0.00125%) was “stronger reduction” and the “reduction in absolute S. aureus counts” value ([2]; enhancer 0.005%) was “stronger reduction”. The “additional decrease in MMP9 secretion by macrophages vs GOX+LPO (1:1) alone” value (MMP9; isoleucine 0.0025%) was 12.7% and the “additional decrease in MMP9 secretion by macrophages vs GOX+LPO (1:1) alone” value (MMP9; isoleucine 0.05%) was 21.5%.

In the case of `N[C@@H](CO)C(=O)O` [Serine, serine], the “LPO activity compared to reference” value (Lactoperoxidase; enhancer 100 mg/ml, reference = no potentiator candidate) is reported as “significant increase”, the “MBC: GOX+LPO enzyme solution needed” value [3] is reported as 0.0000391 % (v/v) and the “increase in MBC compared to reference” value [3] is reported as 4 ×. For the same compound, the “increase in MBC compared to the enhancing molecule guaiacol” value [3] was 2 ×, the “MBC: GOX+LPO enzyme solution needed” value ([1]; enhancer 0.0025%-0.00125%) was 0.0000391 % (v/v) and the “increase in MBC compared to reference” value ([1]; enhancer 0.0025%-0.00125%) was 4 ×. For the same compound, the “increase in MBC compared to the enhancing molecule guaiacol” value ([1]; enhancer 0.0025%-0.00125%) was 2 ×, the “MBC: GOX+LPO enzyme solution needed” value ([1]; enhancer 10%-0.005%) was 0.0000391 % (v/v) and the “increase in MBC compared to reference” value ([1]; enhancer 10%-0.005%) was 4 ×. The “increase in MBC compared to the enhancing molecule guaiacol” value ([1]; enhancer 10%-0.005%) was 2 ×, the “reduction in absolute C. albicans counts compared to reference and guaiacol solution” value [4] was “stronger reduction” and the “reduction in absolute S. aureus counts” value ([2]; enhancer 0.0025-0.00125%) was “stronger reduction”. The “reduction in absolute S. aureus counts” value ([2]; enhancer 10-0.005%) was “stronger reduction”.

`C[C@@H](O)[C@H](N)C(=O)O` [Threonine, threonine] was tested, and the “LPO activity compared to reference” value (Lactoperoxidase; enhancer 0.1 mg/ml) was “significant increase” and the “LPO activity compared to reference” value (Lactoperoxidase; enhancer 1 mg/ml) was “significant increase”.
